Structures are written as SMILES. In brackets after ≈: the same amount, converted by molar mass. Like-named read-outs stand apart in the source and are kept apart here. Where only a bound is given, the exact number is not on record here.

This is an account of results in patent US3965103A, “4-Nitroperhydropyrido[1,2-a][1,4]diazepines” (Schering Aktiengesellschaft, priority 1973, dated 1976).

The test system of one test is Asp. flav. Nature of the test: Tube Dilution Test in liquid media. It counts as cell-based. An excerpt:
(§1) The above mentioned greater activity against dermatophytes, yeasts and other fungi compared to "Bronopol" is illustrated in Table 1:
(§2) MIC (μg./ml.) in the Tube Dilution Test in liquid media

For another test, the system named is Chaet. glob. Description: Tube Dilution Test in liquid media. It counts as cell-based.
Text: as §1, §2

Another test relates to Microsp. gypseum. Description: Tube Dilution Test in liquid media. It counts as cell-based.
Text: as §1, §2

Another test deals with Mucor. pus. Nature of the test: Tube Dilution Test in liquid media. It counts as cell-based.
Text: as §1, §2

Another test relates to Fusar. Description: Tube Dilution Test in liquid media. It is filed as cell-based.
Text: as §1, §2

A further test deals with Trichoph. rubr. Nature of the test: Tube Dilution Test in liquid media. It counts as cell-based.
Text: as §1, §2

The subject of a further test is Trichoph. ment. Nature of the test: Tube Dilution Test in liquid media. It counts as cell-based.
Text: as §1, §2

The subject of the next test is Paecilomyc. Nature of the test: Tube Dilution Test in liquid media. It is filed as cell-based.
Text: as §1, §2

The next test deals with Asp. nig. Nature of the test: Tube Dilution Test in liquid media. It is filed as cell-based.
Text: as §1, §2

For the next test, the system named is Pen. notat. Nature of the test: Tube Dilution Test in liquid media. It counts as cell-based.
Text: as §1, §2

Another test deals with Candid. alb. Description: Tube Dilution Test in liquid media. It is filed as cell-based.
Text: as §1, §2

The subject of another test is Sacch. cer. Description: Tube Dilution Test in liquid media. It is filed as cell-based.
Text: as §1, §2

Another test has as its system Asp. fum. Nature of the test: Tube Dilution Test in liquid media. It is filed as cell-based.
Text: as §1, §2

The test system of another test is bacteria. The conditions noted are these: known from U.S. Pat. No. 3,558,788; cited from earlier work.
Where [1] appears, read: Sacch. cer., tube dilution test, liquid media, read-out: MIC.

Turning to `CCCCC1([N+](=O)[O-])CN(C)CC2CCCCN2C1.Cl.Cl` (centres unmarked) [4-n-Butyl-2-methyl-4-nitroperhydropyrido[1,2-a] [1,4] diazepine dihydrochloride], the MIC in the test with Asp. flav. is 4 µg/mL; in the test on Chaet. glob., 8 µg/mL; in the test with Microsp. gypseum, 8 µg/mL; against Mucor. pus. it was 2 µg/mL; with Fusar., 16 µg/mL; in the test on Trichoph. rubr., 2 µg/mL. Moreover, the MIC against Trichoph. ment. was 2 µg/mL; in the test with Paecilomyc., 63 µg/mL; in the test with Asp. nig., 31 µg/mL; with Pen. notat., 8 µg/mL; with Candid. alb. it was 8 µg/mL; in the test with Sacch. cer. (setting [1]), 4 µg/mL. In the test with Asp. fum., this molecule registered an MIC of 8 µg/mL.
Consider `O=[N+]([O-])C(Br)(CO)CO` [Bronopol, 2-bromo-2-nitropropane-1,3-diol, reference compound], for which the antibacterial activity entry with bacteria is listed as “has antibacterial activity”. The MIC against Asp. flav. was greater than 1000 µg/mL; in the test with Chaet. glob. it was greater than 1000 µg/mL; in the test on Microsp. gypseum, 16 µg/mL (≈ 80 µM); with Mucor. pus., 63 µg/mL (≈ 315 µM); in the test on Trichoph. rubr. it was 4 µg/mL (≈ 20 µM); in the test on Trichoph. ment. it was 8 µg/mL (≈ 40 µM). Further, the MIC against Paecilomyc. is 250 µg/mL (≈ 1250 µM); with Asp. nig., greater than 1000 µg/mL; against Pen. notat., greater than 1000 µg/mL; against Candid. alb. it was 63 µg/mL (≈ 315 µM); against Sacch. cer., 125 µg/mL (≈ 625 µM); against Asp. fum. it was 63 µg/mL (≈ 315 µM).
Regarding `CN1CC2CCCCN2CC(Cc2ccccc2)([N+](=O)[O-])C1.Cl.Cl` (centres unmarked) [4-Benzyl-2-methyl-4-nitroperhydropyrido[1,2-a] [1,4]-diazepine dihydrochloride], the MIC was found to be 63 µg/mL against Asp. flav.; 63 µg/mL against Chaet. glob.; 8 µg/mL with Microsp. gypseum; 8 µg/mL with Mucor. pus.; 2 µg/mL in the test with Trichoph. rubr.; 4 µg/mL with Trichoph. ment.. Besides, the MIC came to 16 µg/mL against Paecilomyc.; 125 µg/mL against Asp. nig.; 125 µg/mL with Pen. notat.; 4 µg/mL against Candid. alb.; 4 µg/mL in the test on Sacch. cer. (setting [1]); 31 µg/mL against Asp. fum..

Broadly, the MIC is the lowest concentration that inhibits growth of the organism.
